Reference: patent US20060229358A1, “Pharmaceutical composition containing flavonoids” (Taipei Medical University, priority 2005, published 2006)

Columns and labels:
[1] = system: OVA-sensitized and challenged BALB/c mice, methacholine-induced Penh; test: Airway hyperresponsiveness in vivo, Penh by whole-body plethysmography (Assay III); design: species or system mouse; details: i.p., FIG. 3A
Method: Sensitization, airway challenge, and allergen provocation was carried out as described by Kanehiro et al with some modifications. The female BALB/c mice from 8 to 12 week of age were obtained from National Laboratory Animal Center (Taiwan), and maintained on diets free of ovalbumin (OVA). Mice were sensitized by an intraperitoneal (i.p.) injection of 20 μg of OVA emulsified in 2.25 mg aluminum hydroxide gel in a total volume of 100 μl on days 0 and 14. For comparison, some mice were not sensitized, but received sham injection. All mice were challenged via the airway by OVA (1% in saline) for 30 min on days 28, 29, and 30 by ultrasonic nebulization. […] AHR was assessed on day 73 (48 h after 1% OVA provocation) for each group. […] The AHR was measured in unrestrained animals by barometric plethysmography using a whole-body plethysmograph (WBP) (Buxco, Troy, N.Y., USA). Mice were placed into the main chamber of the WBP and nebulized first with phosphate buffer solution (PBS), then with increasing doses (6.25-50 mg/ml) of methacholine (MCh) for 3 min for each nebulization, followed by readings of breathing parameters for 3 min after each nebulization with determination of enhanced pause (Penh) values. […] The number of inflammatory cells was counted using a hemacytometer (Hausser Sci., Horsham, Pa., USA). […]

PDE4 = test: Inhibition of cyclic nucleotide PDE activity (Assay I), PDE4, incl. Lineweaver-Burk analysis; type: biochemical, guinea pig; details: from the IC50s of Table 2
Method: Under a protocol approved by the Animal Care and Use Committee of Taipei Medical University, five male guinea pigs (Hartley), weighing 500-600 g, were sacrificed. The lungs (15 g) or hearts (4 g) taken therefrom were chopped into small pieces and homogenized with a glass/teflon homogenizer (Glas-Col, Terre Haute, Ind., USA) in 10 volumes of cold medium (pH 6.5) containing 20 mM Bis-Tris, 2 mM benzamidine, 2 mM EDTA, 50 mM sodium chloride, 0.1 mM phenylmethanesulfonyl fluoride (PMSF), and 1 mM dithiothreitol. At 4° C., the homogenate was centrifuged at 170 g for 15 min, and the supernatant thereof was then re-centrifuged at 40,000 g for 30 min. […] The column was washed with two bed volumes of homogenate buffer to remove unbound material, where the resin beads therein will bind with proteins, such as PDE proteins. Proteins bound to the Q-sepharose beads were eluted with various concentrations (0.23, 0.34, 0.44, 0.69, and 1.00 M) of NaCl dissolved in homogenate buffer (for each concentration, 40-50 mL elution buffer were applied) at a flow rate of 30 ml/h. Fractions (3 ml each) were collected, and ethylene glycol (EG) was added thereto until a final concentration of 30% (v/v). And then the samples were frozen at −70° C.
The activities of PDE1-5 in the homogenate were measured with a two-step procedure according to the method of Thompson and Appleman, using cAMP with [^3H]-cAMP or cGMP with [^3 H]-cGMP as substrates. The PDE enzyme prepared (25 μl) with 10 μl inhibitor or the solvents therefor was incubated for 30 min at 37° C. in a total assay buffer, where the final volume of the assay is amounted to 100 μl. In accordance with the features of the PDE isozymes, the assay buffer contains 50 mM Tris/HCl (pH 7.4), 3 mM MgCl2, 1 mM dithiothreitol, and 0.05% BSA, and optionally contains 1 uM cAMP with 0.2 μCi [^3H]-cAMP as a substrate alone or in the presence of 0.1 unit calmodulin with 10 μM CaCl2, or 5 μM cGMP, and 1 μM cGMP with 0.2 μCi [^3H]-cGMP as another substrate alone or in the presence of 0.1 unit calmodulin with 10 μM CaCl2.
The PDE enzyme and the inhibitors (or their solvent) therefor were mixed and incubated on ice for 30 min previously, and then mixed with the assay buffer. The assay was initiated by transferring the mixture to a water bath at 37° C. Following the other 30 min incubation, the reaction was stopped by transferring the reaction vessel to a bath of boiling water for 3 min. After cooling on ice, 20 μl of the 1 mg/ml of Crotalus atrox venom was added to the reaction mixture, and the mixture was incubated at 37° C. for 10 min. The uncatalyzed substrates, such as cAMP, [^3H]-cAMP, cGMP, or [^3H]-cGMP were removed by the addition of 500 μl of a 1-in-1 Tris-HCl (40 mM) buffer suspension of Dowex resin (1×8-200) with incubation on ice for 30 min, since the bindings of the cyclic nucleotides and the resin. Each tube was then centrifuged for 2 min at 6000 rpm, and 100 μl of the supernatant was removed and counted by a β-counter for calculating the enzyme (PDEs) activity.
The dissociation constant of inhibitor binding (Ki) value was determined from the equation of apparent Km as a function of the inhibitor concentration (insert in A and B, respectively). The slope of the equation is equal to the value of […] (where KM is Michaelis constant). The amounts of the total proteins are calculated based on the analytical method reported by Bradford. In FIGS. 1A and 1B, all enzyme activities are shown as nmole of substrate per mg of proteins per minute (nmole/mg/min) hydrolyzed.
The IC50 values of flavonoids and various reference drugs were calculated using non-linear regression analysis by the software SigmaPlot 7.0 (Sigma Chemical, St. Louis Mo., USA).

With `COc1ccc(C2CC(=O)c3c(O)cc(O)cc3O2)cc1O` (stereo not drawn) [Hesperetin] the “Penh values compared with non-sensitized mice” value ([1]; 3~30 μmol/kg) was “not significantly different” and the “Penh values induced by 50 mg/ml MCh” value ([1]; 10 and 30 μmol/kg, sensitized mice) was “significantly suppressed”.

For `COc1cc(O)c2c(=O)c(-c3ccc(O)cc3)coc2c1` [Prunetin], the “selectivity among PDE1-5” value (PDE4) was “more-selective inhibition on PDE4”.
